Measurements as given in patent US7399754B2, “N2-quinoline or isoquinoline substituted purine derivatives” (priority 2005, dated 2008).
pIC50: −log10 of the molar value. Converted amounts (≈) assume the structure as drawn.

Columns and labels:
[1] = test system: leukemia cells; test: MTT and SRB growth inhibition assays; type: cell-based
Experimental: (§1) The anti-cancer activities of COMPOUND I were evaluated using the microtetrazoline (MTT) and sulforhodamine B (SRB) assays.

[2] = test system: H-22 liver cancer cells; test: MTT and SRB growth inhibition assays; type: cell-based
Experimental: as §1

[3] = test system: Lewis lung carcinomas; test: Subcutaneous Lewis lung carcinoma growth in mice; type: in vivo; conditions: for Tumor vol.: daily intralesional injections 50 mg/kg
Experimental: (§2) To determine if Compound I could inhibit primary tumor growth, syngeneic mice (C57B 16/J) bearing subcutaneous Lewis lung carcinomas and H-22 liver cancer were treated with Compound I with daily intralesional injections of (50 mg/kg) 1 mg of Compound I per 20 g mouse body weight.
Inhibition of primary tumor growth was first observed at dose of 20 mg/kg/day. Increased doses of Compound I correlated with increased efficacy of tumor inhibition. Inhibition of metastatic growth occurred at doses of approximately 20 mg/kg/day. […] In contrast, tumor in animals treated with saline grew rapidly in size to >6.000 mm^3, leading to the demise of all animals on day 17 after tumor implantation.

[4] = test system: most cancer types; test: MTT and SRB growth inhibition assays, many cancer types; type: cell-based
Experimental: as §1

[5] = test system: malignant cells; test: Clonal proliferation, cell cycle and apoptosis of malignant cells in vitro; type: cell-based
Description: (§3) Pulse-exposure studies, using methods as described in Kubota et al., Cancer Res. 1998; 58: 3370-3375 and Campbell et al., J. Mol. Endocrinol.

[6] = test system: Lewis lung carcinoma cells; test: MTT and SRB growth inhibition assays; type: cell-based, murine; conditions: Mus musculus
Experimental: as §1

[7] = test system: PC-3 prostate cancer cells; test: Pulse-exposure clonal growth study; type: cell-based; conditions: PC-3, pulse-exposure
Description: as §3

[8] = test system: LNCap prostate cancer cells; test: Pulse-exposure clonal growth study; type: cell-based
Description: as §3

[9] = test system: Du145 prostate cancer cells; test: Pulse-exposure clonal growth study; type: cell-based
Description: as §3

[10] = test system: H-22 liver cancer; test: Subcutaneous H-22 liver cancer growth in mice; type: in vivo; conditions: 50 mg/kg daily intralesional, 14 days treatment period
Experimental: as §2

[11] = test system: human cancer cells; test: Human cancer cells transplanted to nude mice; type: in vivo
Description: The in vivo anti-cancer activities of COMPOUND I were further evaluated using various other human cancer cells transplanted to nude mice.

With c1cnc2ccc(Nc3nc(NC4CC4)c4nc[nH]c4n3)cc2c1 [Compound I] the IC50 [1] was 2.5 µg/mL (≈ 7.88 µM), the IC50 [2] was 2.24 µg/mL (≈ 7.06 µM) and the Tumor vol. ([3]; day 2) was 200 mm^3. For the same compound, the Tumor vol. ([3]; day 4) was 300 mm^3, the Tumor vol. ([3]; day 6) was 500 mm^3 and the Tumor vol. ([3]; day 8) was 700 mm^3. It also gave a Tumor vol. ([3]; day 10) of 900 mm^3, a Tumor vol. ([3]; day 12) of 1200 mm^3 and a Tumor vol. ([3]; day 14) of 1500 mm^3. For the same compound, the Tumor vol. ([3]; day 16) was 1800 mm^3, the Tumor vol. ([3]; day 17) was 2200 mm^3 and the toxicity ([3]; treated tumor-bearing mice) was “no detectable toxicity”. The “dose at which inhibition of metastatic growth occurred” value ([3]; tumor-bearing mice) was “approximately 20 mg/kg/day”, the “dose at which inhibition of primary tumor growth was first observed” value ([3]; tumor-bearing mice) was 20 mg/kg/day and the “growth in vitro of many types of cancers” value ([4]; MTT and SRB assays) was “significantly inhibited growth”. The pIC50 ([4]; most cancer types) was 5.52 to 6.30, the “clonal proliferation of a variety of malignant cells in vitro” value ([5]; prostate and breast cancers, neuroepithelioma, melanoma, leukemia) was “inhibit the clonal proliferation” and the “cell cycle arrest and apoptosis” value ([5]; some of these cells) was “induces cell cycle arrest and apoptosis”. For the same compound, the IC50 [6] was 2.81 µg/mL (≈ 8.85 µM), the “50% inhibition (ED50) of clonal growth” value [7] was “approximately 18 μg/ml” and the “50% inhibition (ED50) of clonal growth” value [8] was “approximately 18 μg/ml”. The “50% inhibition (ED50) of clonal growth” value [9] was “approximately 18 μg/ml”, the “growth of H-22 liver cancer in mice” value [10] was “primary tumor growth was inhibited” and the “in vivo growth of human cancers” value [11] was “inhibits in vivo growth of many types of human cancers”.
